Peptide text beside a SMILES is read from it.
System: Rattus norvegicus
Assay: Estrogen-like activity in ovariectomized SD rat assessed as increase in uterus weight at 2.5 mg/kg, sc administered daily for 14 days
Assay type: functional
Conditions: route subcutaneous

Row | SMILES | Activity [mg]
1 | CC(C)[C@@H]1NC(=O)[C@@H]2CCCN2C(=O)[C@H](C(C)C)NC(=O)CNC(=O)[C@H](C)NC(=O)[C@H](Cc2c[nH]c3ccccc23)NC1=O [SEGETALIN A] (cyclo(AGVPVW)) | 54.4
2 | CC(C)[C@@H]1NC(=O)CNC(=O)[C@H](C)NC(=O)[C@H](Cc2c[nH]c3ccccc23)NC(=O)[C@H](C)NC1=O [SEGETALIN B] (cyclo(AGVAW)) | 56.3
3 | CC(C)[C@@H]1NC(=O)CNC(=O)[C@H](C)NC(=O)[C@H](Cc2ccc(O)cc2)NC(=O)[C@H](CCCCN)NC1=O [SEGETALIN G] (cyclo(AGVKY)) | 51.2
4 | N=C(N)NCCC[C@@H]1NC(=O)[C@H](Cc2ccc(O)cc2)NC(=O)CNC(=O)[C@H](CO)NC(=O)[C@H](Cc2ccccc2)NC1=O [SEGETALIN H] (cyclo(FSGYR)) | 54.8
